Experimental data reported in the supplement of paper PMC6331611.
In brackets after ≈: the same amount, converted by molar mass. Structures can show the parent of a compound that is named as a salt.

Assays:
[1] = test system: Salmonella enterica serovar Typhimurium SL1344
[2] = test system: Salmonella enterica serovar Typhimurium SL1344; test: intracellular MIC (10-fold luminescence reduction); higher = less potent; conditions: RAW264.7 macrophages
RAW264.7 = test: cytotoxicity (LDH release relative to maximum lysis); higher = more toxic; conditions: 50 µM; 2 h

| SMILES | MIC ([1]; LPM pH 5.8) [µM] | MIC ([1]; MHB) [µM] | MIC ([1]; MOPS glucose minimal medium) [µM] | intracellular MIC [2] [µM] | cytotoxicity (RAW264.7) [%] |
| --- | --- | --- | --- | --- | --- |
| CN1C[C@H](CNC(=O)OCc2ccccc2)C[C@@H]2c3cccc4c3c(cn4C)C[C@H]21 [METERGOLINE] | > 50 | > 50 | > 50 | ≤ 0.78 | 16.2 |
| C=C1c2cccc(O)c2C(=O)C2=C(O)[C@]3(O)C(=O)C(C(N)=O)=C(O)[C@@H](N(C)C)[C@@H]3[C@@H](O)[C@H]12 [METHACYCLINE HYDROCHLORIDE] | ≤ 0.78 | 6.25 | 3.13 | 3.13 | 13.8 |
| C[C@H]1C[C@@H]2[C@H]([C@@H](O)C[C@@]3(C)[C@H]2CC[C@]3(O)C(=O)CO)[C@@]2(C)C=CC(=O)C=C12 [METHYLPREDNISOLONE] | > 50 | > 50 | > 50 | > 50 | 8.21 |
| CN(C)c1ccc(O)c2c1C[C@H]1C[C@H]3[C@H](N(C)C)C(O)=C(C(N)=O)C(=O)[C@@]3(O)C(O)=C1C2=O [MINOCYCLINE HYDROCHLORIDE] | ≤ 0.78 | 12.5 | 6.25 | 12.5 | 21 |
| COc1c(N2C[C@@H]3CCCN[C@@H]3C2)c(F)cc2c(=O)c(C(=O)O)cn(C3CC3)c12 [MOXIFLOXACIN HYDROCHLORIDE] | > 50 | > 50 | > 50 | > 50 | 24.3 |
| C/C(=C\C(=O)OCCCCCCCCC(=O)O)C[C@@H]1OC[C@H](C[C@@H]2O[C@H]2[C@@H](C)[C@H](C)O)[C@@H](O)[C@H]1O [MUPIROCIN] | ≤ 0.78 | > 50 | 25 (≈ 12.5 µg/mL) | 25 | 15.4 |
| CC1CCc2c(N3CCC(O)CC3)c(F)cc3c(=O)c(C(=O)O)cn1c23 (stereo not given) [NADIFLOXACIN] | ≤ 0.78 | 3.13 (≈ 1.13 µg/mL) | 1.56 (≈ 0.562 µg/mL) | 1.56 | 12.7 |
| CCn1cc(C(=O)O)c(=O)c2ccc(C)nc21 [NALIDIXIC ACID] | ≤ 0.78 | 25 (≈ 5.81 µg/mL) | 6.25 (≈ 1.45 µg/mL) | > 50 | 16 |
| CO[C@]12C[C@@H](COC(=O)c3cncc(Br)c3)CN(C)[C@@H]1Cc1cn(C)c3cccc2c13 [NICERGOLINE] | > 50 | > 50 | > 50 | 25 | 20.4 |
| COC(=O)C1=C(C)NC(C)=C(C(=O)OCC(C)C)C1c1ccccc1[N+](=O)[O-] (stereo not given) [NISOLDIPINE] | 12.5 (≈ 4.86 µg/mL) | > 50 | > 50 | > 50 | 20.8 |
| O=[N+]([O-])c1ccc(O)c2ncccc12 [NITROXOLINE] | ≤ 0.78 | 25 (≈ 4.75 µg/mL) | 6.25 (≈ 1.19 µg/mL) | > 50 | 14.6 |
| CCn1cc(C(=O)O)c(=O)c2cc(F)c(N3CCNCC3)cc21 [NORFLOXACIN] | 1.56 (≈ 0.498 µg/mL) | ≤ 0.78 | ≤ 0.78 | 1.56 | 8.22 |
| CO[C@@H]1[C@@H](OC(N)=O)[C@@H](O)[C@H](Oc2ccc3c(O)c(NC(=O)c4ccc(O)c(CC=C(C)C)c4)c(=O)oc3c2C)OC1(C)C [NOVOBIOCIN SODIUM] | 1.17 | > 50 | > 50 | > 50 | 7.98 |
| CC1COc2c(N3CCN(C)CC3)c(F)cc3c(=O)c(C(=O)O)cn1c23 (stereo not given) [OFLOXACIN] | ≤ 0.78 | ≤ 0.78 | ≤ 0.78 | 1.56 | 6.6 |
| C[C@@H]1CN(c2c(F)c(F)c3c(=O)c(C(=O)O)cn(C4CC4)c3c2F)C[C@H](C)N1 [ORBIFLOXACIN] | 3.13 (≈ 1.24 µg/mL) | 3.13 (≈ 1.24 µg/mL) | ≤ 0.78 | ≤ 0.78 | 15.3 |
| CCn1cc(C(=O)O)c(=O)c2cc3c(cc21)OCO3 [OXOLINIC ACID] | 1.56 (≈ 0.408 µg/mL) | 3.13 (≈ 0.818 µg/mL) | ≤ 0.78 | 1.56 | 6.86 |
